Measurements as given in patent publication US6380156B1, “Total synthesis of the amino hip analogue of didemnin A” (The Board of Trustees of the University of Illnois, priority 1996, dated 2002).
Numbered stars: 1 amine (or outer) side, 2 acyl side, 3 side chain; on linkers, the order of the positions; unused ones are H or OH. Bridge positions count the residues as written; N and C are the ends. Square brackets hold non-standard residues; d marks the D form. Peptide text beside a SMILES is read from it. * marks the point of attachment. X1 = CC[C@H](C)[C@@H](N[*:1])[C@@H](O)CC(=O)[*:2]; X2 = CC(C)[C@H](N[*:1])C(=O)[C@H](C)C(=O)[*:2]; NMeY = CN[C@@H](Cc1ccc(O)cc1)C(=O)O; dNMeL = CN[C@H](CC(C)C)C(=O)O; Cbz = O=C(OCc1ccccc1)*

Columns and labels:
DNA and RNA viruses = conditions: cited from earlier work
Nb2 node lymphoma cells = conditions: cited from earlier work
[1] = in vitro; cited from earlier work
HSV = experiment: Antiviral activity, HSV/CV-1; assay type: cell-based; design: key: +++ complete inhibition; ++ strong inhibition; + moderate inhibition; − no inhibition
CV-1 = experiment: Cytotoxicity in the HSV/CV-1 antiviral test; conditions: scale 0-least toxic to 16 (toxic)
[2] = target: elongation factor 1α (EF-1α) (Homo sapiens, UniProt P68104); conditions: GTP-dependent; cited from earlier work
Sequence of elongation factor 1α (EF-1α) (P68104 whole entry): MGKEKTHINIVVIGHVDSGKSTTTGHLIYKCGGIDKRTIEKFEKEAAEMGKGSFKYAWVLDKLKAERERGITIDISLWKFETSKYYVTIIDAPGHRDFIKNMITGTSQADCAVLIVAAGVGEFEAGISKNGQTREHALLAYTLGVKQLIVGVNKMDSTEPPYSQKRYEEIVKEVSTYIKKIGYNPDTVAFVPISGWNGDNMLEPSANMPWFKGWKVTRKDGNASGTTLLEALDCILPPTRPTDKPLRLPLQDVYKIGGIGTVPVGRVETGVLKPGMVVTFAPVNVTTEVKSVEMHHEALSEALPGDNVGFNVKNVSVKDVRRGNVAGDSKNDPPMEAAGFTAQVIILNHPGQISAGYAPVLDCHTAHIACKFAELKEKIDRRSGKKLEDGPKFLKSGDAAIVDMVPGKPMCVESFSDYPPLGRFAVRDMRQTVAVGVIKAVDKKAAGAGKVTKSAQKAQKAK

Compound | antiviral activity against DNA and RNA viruses (DNA and RNA viruses) | binding to a site on Nb2 node lymphoma cells (Nb2 node lymphoma cells) | cytotoxicity relative to didemnin A [1] | HSV/CV-1 Activity (antiviral) (HSV; 10 ng/mL) | HSV/CV-1 Activity (antiviral) (HSV; 20 ng/mL) | HSV/CV-1 Activity (antiviral) (HSV; 50 ng/mL) | HSV/CV-1 Activity (antiviral) (HSV; 100 ng/mL) | HSV/CV-1 Cytotoxicity (CV-1; 10 ng/mL) | HSV/CV-1 Cytotoxicity (CV-1; 20 ng/mL) | HSV/CV-1 Cytotoxicity (CV-1; 50 ng/mL) | HSV/CV-1 Cytotoxicity (CV-1; 100 ng/mL) | binding to elongation factor 1α (EF-1α) [2]
Didemnin B | exhibit antiviral activity | binds to a site on Nb2 node lymphoma cells | approximately twenty times more cytotoxic than didemnin A |  |  |  |  |  |  |  |  | 
CC[C@H](C)[C@H]1NC(=O)[C@@H](NC(=O)[C@@H](CC(C)C)N(C)C(=O)OCc2ccccc2)[C@@H](C)OC(=O)[C@H](Cc2ccc(OC)cc2)N(C)C(=O)[C@@H]2CCCN2C(=O)[C@H](CC(C)C)NC(=O)[C@@H](C)C(=O)[C@H](C(C)C)NC(=O)C[C@@H]1O [Cbz-[Aip^3]-Didemnin A] (Cbz-[dNMeL]T[X1][X2]LP[NMeY](Me); ester 2-C) |  |  |  | − | + | + | + | 0 | 0 | 8 | 10 | 
Didemnin A [Didemnin A (1)] | exhibit antiviral activity |  |  | − | + | + | + | 0 | 0 | 0 | 0 | binds elongation factor 1α (EF-1α) in a GTP-dependent manner
